Test results as given in patent publication US20250152751A1, “RED-SHIFTED FLUOROPHORES AND METHODS OF USING THE SAME” (GEORGIA STATE UNIVERSITY RESEARCH FOUNDATION, INC., priority 2022, published 2025).

Tests used:
[1] = Optical properties of the fluorophores measured in ethanol, compared to ICG; assay type: physicochemical; conditions: for Φ^a (%): compared to ICG
In short: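 Using ethanol as the solvent, the optical behaviour of each fluorophore was characterised relative to a reference dye. The read-outs were the absorption maximum, the emission maximum, the Stokes shift, the quantum yield and the molar extinction coefficient.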

[2] = Solvatochromism: absorption maximum in different solvents; assay type: physicochemical

Structure (SMILES): CCN1C(=CC=C2CCCC(C=C(C#N)C#N)=C2Cl)C(C)(C)c2cc(Br)ccc21 [Compound 74]
- Stokes Shift (nm) [1]: 19 nm
- λabs (nm) [1]: 790 nm
- λem (nm) [1]: 809 nm
- ϵ (cm^−1 M^−1) [1]: 152,300 cm^−1 M^−1
- Φ^a (%) [1]: 11.3%
- λabs (nm) Acetonitrile [2]: 790 nm
- λabs (nm) DMSO [2]: 800 nm
- λabs (nm) Ethanol [2]: 790 nm
- λabs (nm) Methanol [2]: 785 nm

Structure (SMILES): CCN1/C(=C/C=C2\CC(C(C)(C)C)CC(/C=C(\C#N)C(=O)O)=C2Sc2ccncc2)C(C)(C)c2cc(Cl)ccc21 (stereo not drawn) [Compound 79]
- Stokes Shift (nm) [1]: 13 nm
- λabs (nm) [1]: 805 nm
- λem (nm) [1]: 818 nm
- ϵ (cm^−1 M^−1) [1]: 147,300 cm^−1 M^−1
- Φ^a (%) [1]: 11.3%
- λabs (nm) Acetonitrile [2]: 800 nm
- λabs (nm) DMSO [2]: 815 nm
- λabs (nm) Ethanol [2]: 805 nm
- λabs (nm) Methanol [2]: 800 nm

Structure (SMILES): CCN1C(=CC=C2CCCC(C=C(C#N)C(=O)O)=C2Sc2ccncc2)C(C)(C)c2ccccc21 [Compound 77]
- Stokes Shift (nm) [1]: 15 nm
- λabs (nm) [1]: 800 nm
- λem (nm) [1]: 815 nm
- ϵ (cm^−1 M^−1) [1]: 134,400 cm^−1 M^−1
- Φ^a (%) [1]: 11.5%
- λabs (nm) Acetonitrile [2]: 790 nm
- λabs (nm) DMSO [2]: 810 nm
- λabs (nm) Ethanol [2]: 800 nm
- λabs (nm) Methanol [2]: 795 nm

Structure (SMILES): CCN1C(=CC=C2CCCC(C=C(C#N)C(=O)O)=C2N2CCC(CO)CC2)C(C)(C)c2ccccc21 [Compound 80]
- Stokes Shift (nm) [1]: 101 nm
- λabs (nm) [1]: 685 nm
- λem (nm) [1]: 786 nm
- ϵ (cm^−1 M^−1) [1]: 78,200 cm^−1 M^−1
- Φ^a (%) [1]: 16.7%
- λabs (nm) Acetonitrile [2]: 660 nm
- λabs (nm) DMSO [2]: 690 nm
- λabs (nm) Ethanol [2]: 685 nm
- λabs (nm) Methanol [2]: 675 nm

Structure (SMILES): CCCCN1C(=CC=C2CCCC(C=C(C#N)C(=O)O)=C2Sc2ccncc2)C(C)(C)c2ccccc21 [Compound 78]
- Stokes Shift (nm) [1]: 15 nm
- λabs (nm) [1]: 800 nm
- λem (nm) [1]: 815 nm
- ϵ (cm^−1 M^−1) [1]: 166,300 cm^−1 M^−1
- Φ^a (%) [1]: 11.3%
- λabs (nm) Acetonitrile [2]: 795 nm
- λabs (nm) DMSO [2]: 810 nm
- λabs (nm) Ethanol [2]: 800 nm
- λabs (nm) Methanol [2]: 800 nm
